Results taken from PubChem BioAssay AID1918943 (Molecular Pharmacology Branch, DTP, NCI, 2023).

Tested on: 855422-203-R-J1-PDC complex spheroid viability
Assay: Anticancer human tumor 855422-203-R-J1-PDC patient-derived bladder carcinoma cell line growth inhibition
Details: for IC50: curve of first compound; for viability, T/C: stronger effect = lower value
In short: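 Complex spheroids of tumor cells with HUVEC and human MSCs, exposed to iadademstat combined with other agents. Each agent tested in half-log steps from near clinical Cmax (else 10 microM top), DMSO ≤0.25%.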

[1] = second compound 0.1 µM, first compound 0.000316 µM
[2] = second compound 0.1 µM, first compound 0.001 µM
[3] = second compound 0.1 µM, first compound 0.00316 µM
[4] = second compound 0.1 µM, first compound 0.01 µM
[5] = second compound 0.1 µM, first compound 0.0316 µM
[6] = second compound 0.1 µM, first compound 0.1 µM
[7] = second compound 0.316 µM, first compound 0.000316 µM
[8] = second compound 0.316 µM, first compound 0.001 µM
[9] = second compound 0.316 µM, first compound 0.00316 µM
[10] = second compound 0.316 µM, first compound 0.01 µM
[11] = second compound 0.316 µM, first compound 0.0316 µM
[12] = second compound 0.316 µM, first compound 0.1 µM
[13] = second compound 1 µM, first compound 0.000316 µM
[14] = second compound 1 µM, first compound 0.001 µM
[15] = second compound 1 µM, first compound 0.00316 µM
[16] = second compound 1 µM, first compound 0.01 µM
[17] = second compound 1 µM, first compound 0.0316 µM
[18] = second compound 1 µM, first compound 0.1 µM
[19] = second compound 3.16 µM, first compound 0.000316 µM
[20] = second compound 3.16 µM, first compound 0.001 µM
[21] = second compound 3.16 µM, first compound 0.00316 µM
[22] = second compound 3.16 µM, first compound 0.01 µM
[23] = second compound 3.16 µM, first compound 0.0316 µM
[24] = second compound 3.16 µM, first compound 0.1 µM
[25] = second compound 10 µM, first compound 0.000316 µM
[26] = second compound 10 µM, first compound 0.001 µM
[27] = second compound 10 µM, first compound 0.00316 µM
[28] = second compound 10 µM, first compound 0.01 µM
[29] = second compound 10 µM, first compound 0.0316 µM
[30] = second compound 10 µM, first compound 0.1 µM
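Also: drug exposure lasted 7 days starting on day 3 after seeding.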
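For viability, T/C in this document: luminescence viability as percent of DMSO vehicle wells = 100%.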

| SMILES | IC50 (second compound 0.1 µM) [nM] | IC50 (second compound 0.316 µM) [nM] | IC50 (second compound 1 µM) [nM] | IC50 (second compound 3.16 µM) [nM] | IC50 (second compound 10 µM) [nM] | viability, T/C [3] [%] | viability, T/C [4] [%] | viability, T/C [5] [%] | viability, T/C [6] [%] | viability, T/C [9] [%] | viability, T/C [10] [%] | viability, T/C [11] [%] | viability, T/C [12] [%] | viability, T/C [15] [%] | viability, T/C [16] [%] | viability, T/C [17] [%] | viability, T/C [18] [%] | viability, T/C [21] [%] | viability, T/C [22] [%] | viability, T/C [23] [%] | also measured |
| --- | --- | --- | --- | --- | --- | --- | --- | --- | --- | --- | --- | --- | --- | --- | --- | --- | --- | --- | --- | --- | --- |
| CC(C)CC(NC(=O)C(Cc1ccccc1)NC(=O)c1cnccn1)B(O)O (stereo not given) + NC1CCC(NC2CC2c2ccccc2)CC1 | 0.527 | 0.428 | 0.484 | 0.498 | 0.463 | 0.03 | 0.01 | 0.02 | 0.1 | 0.02 | 1.84 | 0.01 | 1.34 | 0.03 | 0.01 | 0.01 | 2.03 | 0.09 | 0.01 | 0.02 | viability, T/C [1]: 88%; viability, T/C [2]: 2.43%; viability, T/C [7]: 67.2%; viability, T/C [8]: 2.02%; viability, T/C [13]: 78.2%; viability, T/C [14]: 1.83%; viability, T/C [19]: 81.7%; viability, T/C [20]: 1.37%; viability, T/C [24]: 0.05%; viability, T/C [25]: 74.6%; viability, T/C [26]: 0.29%; viability, T/C [27]: 0.05%; viability, T/C [28]: 0.08%; viability, T/C [29]: 0.12%; viability, T/C [30]: 0.14% |
| CC(C)CC(NC(=O)CNC(=O)c1cc(Cl)ccc1Cl)B1OC(=O)CC(CC(=O)O)(C(=O)O)O1 (stereo not given) + NC1CCC(NC2CC2c2ccccc2)CC1 | 1.8 | 1.7 | 1.67 | 1.63 | 1.52 | 12.2 | 1.62 | 0.03 | 0.09 | 3.11 | 1.91 | 0.02 | 0.09 | 3.87 | 0.69 | 0.02 | 0.1 | 2.25 | 0.69 | 0.04 | viability, T/C [1]: 95.9%; viability, T/C [2]: 89.3%; viability, T/C [7]: 100%; viability, T/C [8]: 90.4%; viability, T/C [13]: 91.9%; viability, T/C [14]: 87%; viability, T/C [19]: 89.8%; viability, T/C [20]: 85.3%; viability, T/C [24]: 0.1%; viability, T/C [25]: 77.6%; viability, T/C [26]: 76.9%; viability, T/C [27]: 2.8%; viability, T/C [28]: 0.29%; viability, T/C [29]: 0.12%; viability, T/C [30]: 3.15% |
| COc1cc(Nc2ncc3c(n2)-c2ccc(Cl)cc2C(c2c(F)cccc2OC)=NC3)ccc1C(=O)O + NC1CCC(NC2CC2c2ccccc2)CC1 | > 1000 | > 1000 | > 1000 | 892 | > 1000 | 81 | 91.2 | 78.8 | 70.8 | 88.1 | 81.2 | 66.4 | 70.7 | 95.7 | 94.6 | 67.8 | 71.2 | 76.3 | 81.3 | 70.8 | viability, T/C (second compound 0.1 µM, first compound 0.316 µM): 64.5%; viability, T/C (second compound 0.1 µM, first compound 1 µM): 50.3%; viability, T/C (second compound 0.316 µM, first compound 0.316 µM): 64.2%; viability, T/C (second compound 0.316 µM, first compound 1 µM): 56.5%; viability, T/C (second compound 1 µM, first compound 0.316 µM): 61.5%; viability, T/C (second compound 1 µM, first compound 1 µM): 57%; viability, T/C [24]: 66.1%; viability, T/C (second compound 3.16 µM, first compound 0.316 µM): 59.4%; viability, T/C (second compound 3.16 µM, first compound 1 µM): 48.8%; viability, T/C [27]: 83.2%; viability, T/C [28]: 85.5%; viability, T/C [29]: 64.8%; viability, T/C [30]: 63%; viability, T/C (second compound 10 µM, first compound 0.316 µM): 57.7%; viability, T/C (second compound 10 µM, first compound 1 µM): 52.6% |
